The values that follow come from US20230255943A1, “MMP-9 AND MMP-12 INHIBITION FOR TREATING SPINAL CORD INJURY OR RELATED INJURY TO NEUROLOGICAL TISSUE” (The University of Birmingham, priority 2020, published 2023).

In assay [1] the test system is mice with DC crush injury. The experiment in a line: Electrophysiology: compound action potentials (CAP) across DC lesion in mice. The class given is in vivo, mouse. On the procedure: Compound action potentials (CAP) were recorded at 6 w weeks after DC injury and treatment, as described previously—for example B. C. Hains, C. Y. Saab, A. C. Lo, S. G. Waxman, Sodium channel blockade with phenytoin protects spinal cord axons, enhances axonal conduction, and improves functional motor recovery after contusion SCI. Exp Neurol 188, 365-377 (2004).
Briefly, the experimenter was masked to the treatment status of the animals and the CAP amplitude was calculated between the negative deflection after the stimulus artifact and the next peak of the wave. CAP area was also calculated by rectifying the CAP component (full-wave rectification) and measuring its area. To confirm our recordings and that a CAP could not be recorded, the dorsal half of the spinal cord was transected after each experiment between the stimulating and recording electrodes.

Assay [2] has as its system rats with DC crush injury. The experiment in a line: Spinal cord water content after DC injury in rats. Type of assay: in vivo. Conditions: rat DC injury, oral, 3 days. On the procedure:
DC crush injury was administered bilaterally at the T8 vertebral level as described previously (S. Surey, M. Berry, A. Logan, R. Bicknell, Z. Ahmed, Differential cavitation, angiogenesis and wound-healing responses in injured mouse and rat spinal cords. Neuroscience 275, 62-80 (2014); M. L. Read, S. Mir, R. Spice, R. J. Seabright, E. L. Suggate, Z. Ahmed, M. Berry, A. Logan, Profiling RNA interference (RNAi)-mediated toxicity in neural cultures for effective short interfering RNA design. J Gene Med 11, 523-534 (2009)). […]
The efficacy of oral AZD3342 in the DC injury model in adult Sprague-Dawley rat was also assessed. […]
The lesion site+3 mm either side for mice and the lesion site+5 mm either side for the rat DC model were dissected out and the water content of the spinal cord (as a measure of oedema) was determined at 3 days after DC and CC SCI, as described previously (S. Li, C. H. Tator, Effects of MK801 on evoked potentials, spinal cord blood flow and cord edema in acute spinal cord injury in rats. Spinal Cord 37, 820-832 (1999)). […] The percent water content was calculated as: water content (%)=[(wet weight-dry weight)/wet weight]×100%.

Consider `C[C@]1(CS(=O)(=O)N2CC=C(C#Cc3cnc(C4CC4)nc3)CC2)NC(=O)NC1=O` [AZD1236], for which, in assay [1] (optimal doses, 24 h delay vs immediate), the “dorsum cord potentials, CAP amplitudes, CAP areas, 24-h delayed treatment” value is “equally as effective as immediate delivery”. The “CAP area relative to Sham-treated controls” value in assay [1] (oral) was 80%. For the same molecule, the CAP wave result in assay [1] (oral 200 mg/kg, 6 weeks after DC injury) is reported as “restored a significant CAP wave”. In addition, the “mean CAP amplitude” value in assay [1] (oral, all stimulation intensities) is reported as “significantly larger CAP amplitudes”. Moreover, the CAP area in assay [1] (oral, sham 0.65±0.02, DC+vehicle 0.06±0.02) was 0.52±0.09 mV×ms.
`C[C@]1(CS(=O)(=O)N2CCC(Oc3ccc(Cl)cn3)CC2)NC(=O)NC1=O` [AZD3342, (5S)-5-[4-(5-chloro-pyridin-2-yloxy)-piperidine-1-sulfonylmethyl]-5-methylimidazolidine-2,4-dione]: in assay [2], the “SCI-induced edema (spinal cord water content)” value is “suppressed”.
